{"source": "patent US20260285850A1", "about": "“SUBSTITUTED OXAZOLIDINONES AND IMIDAZOLINONES AS HERBICIDES” (FMC CORPORATION, priority 2023, published 2026)", "assay_type_in_all_cases": "in vivo", "key": {"[1]": {"system": "ragweed (common ragweed, Ambrosia artemisiifolia)", "experiment": "Test A preemergence soil spray, visual injury rating 0-100", "details": "10 days, 0 = no effect, 100 = complete control", "method_in_brief": "(§1)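 Plants were grown in a loam soil-sand blend and treated with test chemical in a non-phytotoxic solvent mixture containing surfactant, either sprayed on soil preemergence or applied postemergence to 2-10 cm plants. After 10 days in a greenhouse, injury was scored visually against untreated controls, 0 meaning no effect and 100 complete control.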"}, "[2]": {"system": "green foxtail (Setaria viridis)", "experiment": "Test A preemergence soil spray, visual injury rating 0-100", "details": "10 days, 0 = no effect, 100 = complete control", "method_in_brief": "as §1"}, "[3]": {"system": "corn (Zea mays)", "experiment": "Test A preemergence soil spray, visual injury rating 0-100", "details": "10 days, 0 = no effect, 100 = complete control", "method_in_brief": "as §1"}, "[4]": {"system": "oat, wild (wild oat, Avena fatua)", "experiment": "Test A preemergence soil spray, visual injury rating 0-100", "details": "10 days, 0 = no effect, 100 = complete control", "method_in_brief": "as §1"}, "[5]": {"system": "kochia (Bassia scoparia)", "experiment": "Test A preemergence soil spray, visual injury rating 0-100", "details": "10 days, 0 = no effect, 100 = complete control", "method_in_brief": "as §1"}, "[6]": {"system": "palmer (palmer amaranth, palmer pigweed, Amaranthus palmeri)", "experiment": "Test A preemergence soil spray, visual injury rating 0-100", "details": "10 days, 0 = no effect, 100 = complete control", "method_in_brief": "as §1"}, "[7]": {"system": "barnyardgrass (Echinochloa crus-galli)", "experiment": "Test A preemergence soil spray, visual injury rating 0-100", "details": "10 days, 0 = no effect, 100 = complete control", "method_in_brief": "as §1"}, "[8]": {"system": "blackgrass (Alopecurus myosuroides)", "experiment": "Test A preemergence soil spray, visual injury rating 0-100", "details": "10 days, 0 = no effect, 100 = complete control", "method_in_brief": "as §1"}, "[9]": {"system": "ryegrass, Italian (italian ryegrass, Lolium multiflorum)", "experiment": "Test A preemergence soil spray, visual injury rating 0-100", "details": "10 days, 0 = no effect, 100 = complete control", "method_in_brief": "as §1"}, "[10]": {"system": "wheat (Triticum aestivum)", "experiment": "Test A preemergence soil spray, visual injury rating 0-100", "details": "10 days, 0 = no effect, 100 = complete control", "method_in_brief": "as §1"}, "[11]": {"system": "soybean (Glycine max)", "experiment": "Test A preemergence soil spray, visual injury rating 0-100", "details": "10 days, 0 = no effect, 100 = complete control", "method_in_brief": "as §1"}, "[12]": {"system": "ragweed (common ragweed, Ambrosia artemisiifolia)", "experiment": "Test A postemergence application, visual injury rating 0-100", "details": "10 days", "method_in_brief": "as §1"}, "[13]": {"system": "green foxtail (Setaria viridis)", "experiment": "Test A postemergence application, visual injury rating 0-100", "details": "10 days", "method_in_brief": "as §1"}, "[14]": {"system": "corn (Zea mays)", "experiment": "Test A postemergence application, visual injury rating 0-100", "details": "10 days", "method_in_brief": "as §1"}, "[15]": {"system": "oat, wild (wild oat, Avena fatua)", "experiment": "Test A postemergence application, visual injury rating 0-100", "details": "10 days", "method_in_brief": "as §1"}, "[16]": {"system": "kochia (Bassia scoparia)", "experiment": "Test A postemergence application, visual injury rating 0-100", "details": "10 days", "method_in_brief": "as §1"}, "[17]": {"system": "galium (catchweed bedstraw, Galium aparine)", "experiment": "Test A postemergence application, visual injury rating 0-100", "details": "10 days", "method_in_brief": "as §1"}, "[18]": {"system": "horseweed (Erigeron canadensis)", "experiment": "Test A postemergence application, visual injury rating 0-100", "details": "10 days", "method_in_brief": "as §1"}, "[19]": {"system": "palmer (palmer amaranth, palmer pigweed, Amaranthus palmeri)", "experiment": "Test A postemergence application, visual injury rating 0-100", "details": "10 days", "method_in_brief": "as §1"}, "[20]": {"system": "barnyardgrass (Echinochloa crus-galli)", "experiment": "Test A postemergence application, visual injury rating 0-100", "details": "10 days", "method_in_brief": "as §1"}, "[21]": {"system": "blackgrass (Alopecurus myosuroides)", "experiment": "Test A postemergence application, visual injury rating 0-100", "details": "10 days", "method_in_brief": "as §1"}, "[22]": {"system": "ryegrass, Italian (italian ryegrass, Lolium multiflorum)", "experiment": "Test A postemergence application, visual injury rating 0-100", "details": "10 days", "method_in_brief": "as §1"}, "[23]": {"system": "wheat (Triticum aestivum)", "experiment": "Test A postemergence application, visual injury rating 0-100", "details": "10 days", "method_in_brief": "as §1"}, "[24]": {"system": "soybean (Glycine max)", "experiment": "Test A postemergence application, visual injury rating 0-100", "details": "10 days", "method_in_brief": "as §1"}, "[25]": {"system": "sedge, umbrella (small-flower umbrella sedge, Cyperus difformis)", "experiment": "Test B flooded paddy test, visual plant response rating 0-100", "details": "250 g ai/ha, Flood, applied to paddy water, evaluated after 13 days", "method_in_brief": "(§2)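 Each species was raised to two leaves before flooding to a 3 cm depth and dosing the water with compound. Injury was assessed by eye after 13 days under greenhouse conditions.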"}, "[26]": {"system": "barnyardgrass (Echinochloa crusgalli)", "experiment": "Test B flooded paddy test, visual plant response rating 0-100", "details": "250 g ai/ha, Flood, applied to paddy water, evaluated after 13 days", "method_in_brief": "as §2"}, "[27]": {"system": "rice (Oryza sativa)", "experiment": "Test B flooded paddy test, visual plant response rating 0-100", "details": "250 g ai/ha, Flood, applied to paddy water, evaluated after 13 days", "method_in_brief": "as §2"}, "[28]": {"system": "ducksalad (Heteranthera limosa)", "experiment": "Test B flooded paddy test, visual plant response rating 0-100", "details": "250 g ai/ha, Flood, applied to paddy water, evaluated after 13 days", "method_in_brief": "as §2"}, "[29]": {"details": "31 g ai/ha, postemergence, 0 = no effect, 100 = complete control"}, "[30]": {"details": "Postemergence, 125 g ai/ha, 0 is no effect, 100 is complete control"}}, "data": [{"smiles": "CNC(=O)C1CCC(NC(=O)C2(C)CN(c3cc(F)cc(F)c3)C(=O)O2)C1", "note": "(stereo not shown) [Compound 14]", "values": [{"measurement": "Ragweed plant response rating (0-100)", "setting": "[1]; 31 g ai/ha", "result": 0}, {"measurement": "Ragweed plant response rating (0 to 100 scale)", "setting": "[1]; 125 g ai/ha", "result": 30}, {"measurement": "Foxtail, Green plant response rating (0-100)", "setting": "[2]; 31 g ai/ha", "result": 0}, {"measurement": "Foxtail, Green plant response rating (0 to 100 scale)", "setting": "[2]; 125 g ai/ha", "result": 0}, {"measurement": "Corn plant response rating (0-100)", "setting": "[3]; 31 g ai/ha", "result": 0}, {"measurement": "Corn plant response rating (0 to 100 scale)", "setting": "[3]; 125 g ai/ha", "result": 0}, {"measurement": "Oat, Wild plant response rating (0-100)", "setting": "[4]; 31 g ai/ha", "result": 0}, {"measurement": "Oat, Wild plant response rating (0 to 100 scale)", "setting": "[4]; 125 g ai/ha", "result": 0}, {"measurement": "Kochia plant response rating (0-100)", "setting": "[5]; 31 g ai/ha", "result": 0}, {"measurement": "Kochia plant response rating (0 to 100 scale)", "setting": "[5]; 125 g ai/ha", "result": 0}, {"measurement": "Amaranth, Palmer plant response rating (0-100)", "setting": "[6]; 31 g ai/ha", "result": 0}, {"measurement": "Amaranth, Palmer plant response rating (0 to 100 scale)", "setting": "[6]; 125 g ai/ha", "result": 0}, {"measurement": "Barnyardgrass plant response rating (0-100)", "setting": "[7]; 31 g ai/ha", "result": 0}, {"measurement": "Barnyardgrass plant response rating (0 to 100 scale)", "setting": "[7]; 125 g ai/ha", "result": 0}, {"measurement": "Blackgrass plant response rating (0-100)", "setting": "[8]; 31 g ai/ha", "result": 0}, {"measurement": "Blackgrass plant response rating (0 to 100 scale)", "setting": "[8]; 125 g ai/ha", "result": 0}, {"measurement": "Ryegrass, Italian plant response rating (0-100)", "setting": "[9]; 31 g ai/ha", "result": 0}, {"measurement": "Ryegrass, Italian plant response rating (0 to 100 scale)", "setting": "[9]; 125 g ai/ha", "result": 0}, {"measurement": "Wheat plant response rating (0-100)", "setting": "[10]; 31 g ai/ha", "result": 0}, {"measurement": "Wheat plant response rating (0 to 100 scale)", "setting": "[10]; 125 g ai/ha", "result": 0}, {"measurement": "Soybean plant response rating (0-100)", "setting": "[11]; 31 g ai/ha", "result": 0}, {"measurement": "Soybean plant response rating (0 to 100 scale)", "setting": "[11]; 125 g ai/ha", "result": 0}, {"measurement": "Ragweed plant response rating (0-100)", "setting": "[12]; [29]", "result": 0}, {"measurement": "Ragweed plant response rating (0 to 100 scale)", "setting": "[12]; [30]", "result": 0}, {"measurement": "Foxtail, Green plant response rating (0-100)", "setting": "[13]; [29]", "result": 0}, {"measurement": "Foxtail, Green plant response rating (0 to 100 scale)", "setting": "[13]; [30]", "result": 0}, {"measurement": "Corn plant response rating (0-100)", "setting": "[14]; [29]", "result": 0}, {"measurement": "Corn plant response rating (0 to 100 scale)", "setting": "[14]; [30]", "result": 20}, {"measurement": "Oat, Wild plant response rating (0-100)", "setting": "[15]; [29]", "result": 0}, {"measurement": "Oat, Wild plant response rating (0 to 100 scale)", "setting": "[15]; [30]", "result": 0}, {"measurement": "Kochia plant response rating (0-100)", "setting": "[16]; [29]", "result": 0}, {"measurement": "Kochia plant response rating (0 to 100 scale)", "setting": "[16]; [30]", "result": 0}, {"measurement": "Galium plant response rating (0-100)", "setting": "[17]; [29]", "result": 0}, {"measurement": "Galium plant response rating (0 to 100 scale)", "setting": "[17]; [30]", "result": 0}, {"measurement": "Horseweed plant response rating (0-100)", "setting": "[18]; [29]", "result": 0}, {"measurement": "Horseweed plant response rating (0 to 100 scale)", "setting": "[18]; [30]", "result": 0}, {"measurement": "Amaranth, Palmer plant response rating (0-100)", "setting": "[19]; [29]", "result": 0}, {"measurement": "Amaranth, Palmer / Pigweed, Palmer plant response rating (0 to 100 scale)", "setting": "[19]; [30]", "result": 0}, {"measurement": "Barnyardgrass plant response rating (0-100)", "setting": "[20]; [29]", "result": 0}, {"measurement": "Barnyardgrass plant response rating (0 to 100 scale)", "setting": "[20]; [30]", "result": 0}, {"measurement": "Blackgrass plant response rating (0-100)", "setting": "[21]; [29]", "result": 0}, {"measurement": "Blackgrass plant response rating (0 to 100 scale)", "setting": "[21]; [30]", "result": 0}, {"measurement": "Ryegrass, Italian plant response rating (0-100)", "setting": "[22]; [29]", "result": 0}, {"measurement": "Ryegrass, Italian plant response rating (0 to 100 scale)", "setting": "[22]; [30]", "result": 0}, {"measurement": "Wheat plant response rating (0-100)", "setting": "[23]; [29]", "result": 0}, {"measurement": "Wheat plant response rating (0 to 100 scale)", "setting": "[23]; [30]", "result": 0}, {"measurement": "Soybean plant response rating (0-100)", "setting": "[24]; [29]", "result": 0}, {"measurement": "Soybean plant response rating (0 to 100 scale)", "setting": "[24]; [30]", "result": 0}, {"measurement": "Plant response rating, Sedge, Umbrella (0 to 100 scale, 0 is no effect and 100 is complete control)", "setting": "[25]", "result": 0}, {"measurement": "Plant response rating, Barnyardgrass (0 to 100 scale, 0 is no effect and 100 is complete control)", "setting": "[26]", "result": 0}, {"measurement": "Plant response rating, Rice (0 to 100 scale, 0 is no effect and 100 is complete control)", "setting": "[27]", "result": 0}, {"measurement": "Plant response rating, Ducksalad (0 to 100 scale, 0 is no effect and 100 is complete control)", "setting": "[28]", "result": 0}]}]}
